Entries after “also recorded” stand apart in the source; their conditions may differ.
Columns and labels:
honeybees [1] = test: Appetency of the honeybees (consumption of syrup in small cases, batches of 100 honeybees); type: in vivo; details: for Appetency, absolute value / Appetency, 1/1 COPPER GLUCONATE: with pollen, mean ± SD; for Appetency, absolute value: pure sugar syrup 21.13±6.31; for Appetency, 1/1 COPPER GLUCONATE: 1/1 with copper gluconate; for Appetency, RELATIVE VALUES / PURE SUGAR SYRUP, AVERAGE / Appetency, RELATIVE VALUES / PURE SUGAR SYRUP, TEST 1 / Appetency, RELATIVE VALUES / PURE SUGAR SYRUP, TEST 2: relative to pure sugar syrup; for Appetency, RELATIVE VALUES / PURE SUGAR SYRUP, AVERAGE: average of tests; for Appetency, RELATIVE VALUES / PURE SUGAR SYRUP, TEST 1: test 1 (first concentration tested); for Appetency, RELATIVE VALUES / PURE SUGAR SYRUP, TEST 2: test 2 (second concentration tested)
Text: It should be noted that the pollen has been made available to the honeybees in a sufficient amount inside the small cases, without being admixed to the syrup. The determinations have been performed every day and the length of the vertical bars of the diagrams hereabove, are proportional to the deviation of the observed results. They evidence a clearly higher […] case of the utilization of the compounds of this invention. […] The results of these tests are gathered in Table 7 hereinafter in which the figures correspond to measures performed on honeybees placed in small cases, having pollen to their disposal, and are means expressed in microliters per honeybee and per day for N countings.

Trehalases = test: Activity of trehalases in the hemolymph of honeybees after ingestion; type: in vivo; details: FIGS. 8A-8D, 9A-9B, 10B, listed as copper glyconate
Text: (§1) These diagrams evidence the action of copper glyconate on the glycosemia of the honeybees after ingestion of increasing doses of this product.
(§2) FIG. 9A corresponds to experiments performed without administration of an inhibitor of trehalases
(§3) FIG. 9B is with administration of such an inhibitor.
(§4) FIG. 10A further evidences the variation of the glucosemia in the honeybees following the ingestion of copper glyconate.

honeybees [2] = details: in vivo
Varroa jacobsoni = test: Action against Varroa jacobsoni in full-size hives: counting of fallen/remaining Varroas, efficiency; type: in vivo; details: for FALL OF THE VARROAS: 4 hives, mean ± SD
Protocol: Each hive was provided at its lower part with a plastic plate coated with a consistent grease. Each day at the same time, the plate was discarded and the counting of the Varroas fallen on the plate, was carried out. A grid surmounting this plate avoid that the honeybees may spontaneously proceed with the discharge of the Varroas.
The results shown in FIG. 2 have been obtained following experiments performed at full size in hives containing from 20,000 to 50,000 honeybees.
2°--The efficiency of the treatment has been defined as the ratio between the number of Varroas subsiding in the various colonies of an apiary after treatment by solutions at various concentrations, and the number of Varroas contained in the control hives, these two figures have been measured after treatment with Amitraze.
This experiment has been carried out in a series of 14 hives and the result thereof are compiled in the Table 3 figuring herein after.
These experiments allow to obtain the results of Table 3 above, and were carried out in full size on a set of 14 hives.
Measurements of the falls of the Varroas have been performed, at first, every day then every three days starting from the initiation of the delivery of the syrup.
To this end, a plate coated with a consistent grease was arranged at the bottom of each hive and protected with a grid as above-mentioned, in order to allow the counting of the Varroas. The fall begins to be significative in relation to the control hives which have only been given pure sugar syrup, after absorption by the honeybees of 3 liters of syrup per hive in 10 days.
The counting of the remaining Varroas has been performed 2 days after the last delivery of syrup while submitting each hive to a treatment of shock by means of an acaricide (in these circumstances the marketed composition sold under the Tread Name AMITRAZE).
The averages and the standard deviations have been calculated for the number of performed measures corresponding to the number of hives, this figure being mentioned between hyphens following the figures of the third column in Table 3.

honeybees [3] = test: Lethality / noxiousness for the honeybees; details: 6.75 l of syrup per hive, 0.02 to 0.5 g/l copper gluconate
honeybees [4] = test: Acceptance of treated syrup by honeybees in full-size hives; type: in vivo; details: syrup of sucrose 66% w/w with copper gluconate
honeybees [5] = test: Biological activity / metabolism of honeybees and productivity of hives; details: in vivo
[6] = system: glycosemia in the honeybees; test: Glycosemia / glucose in the hemolymph of honeybees after ingestion; type: in vivo; details: FIGS. 8A-8D, 9A-9B, 10A
Text: as §1, §2, §3, §4

Solubility in water = details: for water solubility: 20° C.
honeybees [7] = test: Phagoinhibitive action on food intake by the honeybees (small cases, 100 honeybees, syrup with copper sulphate); type: in vivo; details: FIG. 1; absorption in ml/bee/day vs g/l copper sulphate
Text: The obtained results as shown under FIG. 1 have been obtained from studies carried out in the laboratory, on batches of 100 honeybees each, located in small coops called small cases (logettes) in the absence of queen bees. The feeding made available to the honeybees, is placed in a graduated tube which allows the measurement of the ingested amount every day. The experiments have been carried out simultaneously with various small cases each receiving for the feeding of the honeybees a syrup of sucrose at 2 kg for 1 l water (i.e. 66% weight/weight) containing variable amounts of copper sulphate.

| Compound | Appetency, absolute value (honeybees [1]; 0,44 M.M.) | Appetency, absolute value (honeybees [1]; 1,1 M.M.) | supplemental effects: production of honey, activity of cleaning the hives (honeybees [5]) | Appetency, 1/1 COPPER GLUCONATE (honeybees [1]) | Appetency, RELATIVE VALUES / PURE SUGAR SYRUP, AVERAGE (honeybees [1]) | Appetency, RELATIVE VALUES / PURE SUGAR SYRUP, TEST 1 (honeybees [1]) | Appetency, RELATIVE VALUES / PURE SUGAR SYRUP, TEST 2 (honeybees [1]) | also measured |
| --- | --- | --- | --- | --- | --- | --- | --- | --- |
| Copper gluconate | 22,3 ± 2,5 microliters per honeybee and p | 21,2 ± 2,6 microliters per honeybee and p | increases the production of honey |  |  |  |  | appetency of the honeybees (in words) (honeybees [1]; sucrose syrup 66% w/w, FIGS. 7A-7C, comparison with copper sulphate): great appentency of the honeybees; activity / concentration of trehalases in the hemolymph (Trehalases): increase of the activity of the Trehalases; also recorded: increase in the concentration of glucose and trehalases in the hemolymph; storage of copper inside the body of the honeybees (honeybees [2]): does not incur any storage of copper inside the body of the honeybees; FALL OF THE VARROAS (Varroa jacobsoni; 0,2 g/l copper gluconate in syrup): 165,5 ± 84,1; FALL OF THE VARROAS (Varroa jacobsoni; 0,5 g/l copper gluconate in syrup): 207 ± 172; FALL OF THE VARROAS (Varroa jacobsoni; 1 g/l copper gluconate in syrup): 109 ± 141; destroying of the Varroas (in words) (Varroa jacobsoni; in vivo): efficient even at low doses; syrup absorbed per hive when fall of Varroas begins to be significative vs control hives (Varroa jacobsoni; per hive, in 10 days): 3 L; percentage of lethality in the honeybees compared to controls (honeybees [3]): no increase in the percentage of lethality in the honeybees; ingestion of the syrup by the honeybees in hives (honeybees [4]): The whole amount of syrup made available to the honeybees was absorbed every day; also recorded: totally ingested; supplemental effects: production of honey, activity of cleaning the hives (honeybees [5]; listed as copper glyconate): increase in the activity of cleaning the hives; glycosemia / concentration of glucose in the hemolymph of the honeybees [6]: a momentaneous and significative increase of the glycosemia in the honeybees; glycosemia / concentration of glucose in the hemolymph of the honeybees ([6]; listed as copper glyconate): increase in the concentration of glucose |
| Copper glucoheptonate | 15,68 ± 2,35 microliters per honeybee and p | 14,58 ± 3,16 microliters per honeybee and p | A similar effect has been shown | 14,90 ± 3,64 microliters per honeybee and p | 71,6% | 74,2% | 69,0% | water solubility (in words) (Solubility in water): very soluble |
| Copper isoleucinate |  |  |  |  | 71,55% | 78,9% | 64,2% | Appetency, absolute value (honeybees [1]; 0,61 M.M.): 16,69 ± 5,03 microliters per honeybee and p; Appetency, absolute value (honeybees [1]; 1,54 M.M.): 13,57 ± 5,77 microliters per honeybee and p; Appetency, absolute value (honeybees [1]; 2,4 M.M.): 13,79 ± 5,73 microliters per honeybee and p; water solubility (Solubility in water): 1% |
| Copper gluconate/glucoheptonate |  |  | A similar effect has been shown |  |  |  |  |  |
| CC(O)C(=O)[O-].CC(O)C(=O)[O-].[Cu+2] (stereo not drawn) [Copper lactate] | 15,30 ± 4,24 microliters per honeybee and p | 15,60 ± 4,34 microliters per honeybee and p |  | 10,95 ± 3,54 microliters per honeybee and p | 73,6% | 72,4% | 73,8% |  |
| Copper leucinate | 15,83 ± 4,53 microliters per honeybee and p | 13,02 ± 2,42 microliters per honeybee and p |  | 13,02 ± 2,42 microliters per honeybee and p | 67,8% | 74,0% | 61,6% | water solubility (Solubility in water): 1% |
| Copper 1-aspartate |  |  |  |  | 55,1% | 76,5% | 69,4% | Appetency, absolute value (honeybees [1]; 0,61 M.M.): 17,96 ± 7,20 microliters per honeybee and p; Appetency, absolute value (honeybees [1]; 1,54 M.M.): 14,68 ± 5,40 microliters per honeybee and p; Appetency, absolute value (honeybees [1]; 2,4 M.M.): 12,49 ± 5,11 microliters per honeybee and p |
| NCC(=O)[O-].NCC(=O)[O-].[Cu+2] [Copper glycinate] | 16,65 ± 5,01 microliters per honeybee and p | 15,5 ± 5,03 microliters per honeybee and p |  | 14,30 ± 3,52 microliters per honeybee and p | 75,85% | 78,0% | 73,7% |  |
| Copper Asparaginate | 15,48 ± 4,32 microliters per honeybee and p | 11,97 ± 3,34 microliters per honeybee and p |  | 12,21 ± 4,29 microliters per honeybee and p | 65,0% | 73,2% | 56,3% | water solubility (Solubility in water): 0,5% |
| O=S(=O)([O-])[O-].[Cu+2] [copper sulphate] |  |  |  |  |  |  |  | phagoinhibitive (anorectic) action on food intake (honeybees [7]): phagoinhibitive action |
| Copper 1-glutamate | 16,18 ± 4,66 microliters per honeybee and p | 16,64 ± 7,97 microliters per honeybee and p |  | 11,56 ± 6,32 microliters per honeybee and p | 77,6% | 76,5% | 78,7% |  |
| Copper gluconate/glutamate |  |  | A similar effect has been shown |  |  |  |  |  |
| COPPER CITRATE | 14,71 ± 4,25 microliters per honeybee and p | 12,67 ± 3,96 microliters per honeybee and p |  | 12,67 ± 3,96 microliters per honeybee and p | 64,75% | 69,5% | 60,0% |  |

— US5023359A, “Use of organic salts of copper for the treatment of honeybee's parasitic diseases” (priority 1990, dated 1991)
